Target: VicR (Streptococcus mutans, UniProt I6L8Z5)
Experiment: bio-layer interferometry, biotinylated 2B5 on streptavidin sensors; pulldown of recombinant VicR and VicR-N
Type: binding
Parameters: gene covR; recombinant VicR; VicR-N (1 to 125 amino acid residues) also captured, VicR-C (126 to 235) not captured

Chain of VicR (I6L8Z5 entry or part of it): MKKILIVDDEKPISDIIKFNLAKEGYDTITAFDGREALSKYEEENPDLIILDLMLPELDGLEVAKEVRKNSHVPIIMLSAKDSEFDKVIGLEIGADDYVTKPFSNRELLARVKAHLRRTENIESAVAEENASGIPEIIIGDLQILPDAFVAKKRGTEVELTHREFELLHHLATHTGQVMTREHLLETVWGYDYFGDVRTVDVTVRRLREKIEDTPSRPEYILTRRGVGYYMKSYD

Question: With `CCCCCCCCCCCCCCCCN(CCCCCCc1cn(CCNC(=O)CCCC[C@@H]2SC[C@@H]3NC(=O)N[C@@H]32)nn1)C(=O)CCCc1c[nH]c(N)n1` [Bio2B5, biotinylated 2B5] as the molecule, how does the Kd read?
Answer: Its Kd is 38 ± 6.3 µM.

From PMC10294662, “Small Molecule Attenuates Bacterial Virulence by Targeting Conserved Response Regulator” (mBio, 2023)
